In ChEMBL document CHEMBL2424544, “Inhibitors of switch kinase 'spleen tyrosine kinase' in inflammation and immune-mediated disorders: a review” (Eur J Med Chem, 2013):

Target: Tyrosine-protein kinase SYK (Homo sapiens, UniProt P43405)
Test: Inhibition of spleen tyrosine kinase (unknown origin); call rule not given here

Compound	IC50 (read-out: IC50)	IC50
CNc1nc(NCCN)ncc1C(N)=O	> 10 µM	–
CNC(=O)c1cnc(NCCN)nc1Nc1cccc(C(F)(F)F)c1	> 10 µM	–
CN(C)C(=O)c1cnc(NCCN)nc1Nc1cccc(C(F)(F)F)c1	> 10 µM	–
COc1ccc2c(c1)c(/C=C1\C(=O)Nc3ccc(S(=O)(=O)N(C)C)cc31)cn2C	–	Not Active
CN(C)CCN(C)c1ncc(C(N)=O)c(Nc2cccc(C(F)(F)F)c2)n1	> 10 µM	–
